Experimental data: PubChem BioAssay AID1845209 (Molecular Pharmacology Branch, DTP, NCI, 2023)

System: NCI-H211 tumor spheroids, viability percent test/control
Assay: Anticancer human tumor NCI-H211 cell line growth inhibition;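 note: spheroids exposed to agents for seven days before readout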
Conditions: spheroids with HUVEC and MSC; for IC50: curve of first compound; for viability, T/C: stronger effect = lower value
Excerpt: Multicellular complex tumor spheroid response to DNA repair inhibitors in combination with DNA-damaging drugs
This study explores the anticancer activities of DNA-damaging drugs and inhibitors of DNA damage repair, both as single agents and in combinations. Complex tumor spheroids comprised of malignant cells, endothelial cells and mesenchymal stem cells served as an in vitro model for human solid tumors. This model system incorporates physiologically relevant features and patient-derived or established malignant cell lines with clinically relevant genetic alterations from many tumor types. Twenty-six patient-derived or established malignant cell lines were evaluated representing sarcoma, melanoma, small cell lung cancer (SCLC), non-small cell lung cancer (NSCLC), as well as bladder, ovarian and pancreatic cancers. The concentration ranges selected for each drug and investigational agent were based upon clinically achievable concentrations if the clinical Cmax of the agent was known.
Compounds. The drugs and compounds olaparib (NSC753686), talazoparib (NSC767125), berzosertib (NSC777718), elimusertib (NSC800525), nedisertib (NSC802822), VX-984 (NSC792969), AZD-1390 (NSC803789), temozolomide (NSC362856), topotecan (NSC609699), trabectedin (NSC813783), staurosporine (NSC755774), and gemcitabine (NSC613327) were obtained from the National Cancer Institute (NCI) Developmental Therapeutics Program Chemical Repository. The FDA-approved anticancer drug set is available from the Developmental Therapeutics Program at https://dtp.cancer.gov/organization/dscb/obtaining/available_plates.htm. […] The stock solutions were prepared in dimethyl sulfoxide (DMSO, Sigma-Aldrich, St. Louis, MO, cat. D2650) at 400-fold the tested concentration and stored at -70 degrees C. Prior to their use, the stock solutions were diluted in fresh medium and the final DMSO concentration in the assay was 0.25% (v/v). All drugs and investigational agents were tested over a range starting from a high concentration at or near the clinical Cmax and decreasing in half-log increments. If the clinical Cmax for an agent had not been determined, the highest concentration tested was 10 microM.
Cell Lines. The patient-derived cancer cell (PDC) lines: 156681-154-R-J1-PDC, 283228-195-R-J1-PDC, 287954-098-R-J1-PDC, 292921-168-R-J2-PDC, 349418-098-R-PDC, 425362-245-T-J1-PDC, 556581-035-R-J1-PDC, and BL0293-F563-PDC were received from the NCI Patient-Derived Models Repository (PDMR, https://pdmr.cancer.gov). The established cell lines HS-SY-2 (RRID:CVCL_8719), MPNST, and SYO-1 (RRID:CVCL_7146) were obtained from the Sloan Kettering Institute. The alveolar soft parts sarcoma cell line ASPS-1 (RRID:CVCL_S738) was established at the NCI and grown from internal seed stocks. The following established cell lines were purchased from the American Type Culture Collection (ATCC, Manassas, VA): G-401 (ATCC, cat. CRL-1441, RRID:CVCL_0270), SW982 (ATCC, cat. HTB-93, RRID:CVCL_1734), VA-ES-BJ (ATCC, cat. CRL-2138, RRID:CVCL_1785), NCI-H719 (ATCC, cat. CRL-5837, RRID:CVCL_1582), NCI-H196 (ATCC, cat. CRL-5823, RRID:CVCL_1509), NCI-H841 (ATCC, cat. CRL-5845, RRID:CVCL_1595), NCI-H1618 (ATCC, cat. CRL-5879, RRID:CVCL_1480), NCI-H1876 (ATCC, cat. CRL-5902, RRID:CVCL_1503), DMS 114 (ATCC, cat. CRL-2066; RRID:CVCL_1174), NCI-H211 (ATCC, cat. CRL-5824; RRID:CVCL_1529), and SW 1271 (ATCC, cat. CRL-2177, RRID:CVCL_1716). The small cell lung cancer cell line COR-L88 was purchased from Sigma-Aldrich (cat. 92031917-1VL, RRID:CVCL_1141). The non-small cell lung cancer cell lines NCI-H226 (RRID:CVCL_1544) and NCI-H322M (RRID:CVCL_1557) were established at the NCI and grown from internal seed stocks. Pooled donor human umbilical vein endothelial cells (HUVEC, Lonza, cat. CC-2519) and human mesenchymal stem cells (hMSC, Lonza, cat. PT-2501) were purchased from Lonza (Walkersville, MD).
Cell Culture. All cells were maintained in an incubator at 37 degrees C and 5% CO2 with 95% humidity. […]

Cc1sc2c(c1C)C(c1ccc(Cl)cc1)=NC(CC(=O)Nc1ccc(O)cc1)c1nnc(C)n1-2 (stereo not given) + COc1cc2c(cc1O)CCNC21CSC2c3c(OC(C)=O)c(C)c4c(c3C(COC1=O)N1C(O)C3Cc5cc(C)c(OC)c(O)c5C(C21)N3C)OCO4
IC50 (second compound 30 pM): < 9.49 nM
IC50 (second compound 94.9 pM): < 9.49 nM
IC50 (second compound 0.0003 µM): < 9.49 nM
IC50 (second compound 0.000949 µM): < 9.49 nM
IC50 (second compound 0.003 µM): < 9.49 nM
viability, T/C (second compound 30 pM, first compound 0.00949 µM): 45.6%
viability, T/C (second compound 30 pM, first compound 0.03 µM): 4.36%
viability, T/C (second compound 30 pM, first compound 0.0949 µM): 0.66%
viability, T/C (second compound 30 pM, first compound 0.3 µM): 0.42%
viability, T/C (second compound 30 pM, first compound 0.949 µM): 0.31%
viability, T/C (second compound 30 pM, first compound 3 µM): 0.33%
viability, T/C (second compound 94.9 pM, first compound 0.00949 µM): 4.74%
viability, T/C (second compound 94.9 pM, first compound 0.03 µM): 0.91%
viability, T/C (second compound 94.9 pM, first compound 0.0949 µM): 0.53%
viability, T/C (second compound 94.9 pM, first compound 0.3 µM): 0.42%
viability, T/C (second compound 94.9 pM, first compound 0.949 µM): 0.33%
viability, T/C (second compound 94.9 pM, first compound 3 µM): 0.43%
viability, T/C (second compound 0.0003 µM, first compound 0.00949 µM): 0.79%
viability, T/C (second compound 0.0003 µM, first compound 0.03 µM): 0.61%
viability, T/C (second compound 0.0003 µM, first compound 0.0949 µM): 0.45%
viability, T/C (second compound 0.0003 µM, first compound 0.3 µM): 0.61%
viability, T/C (second compound 0.0003 µM, first compound 0.949 µM): 0.4%
viability, T/C (second compound 0.0003 µM, first compound 3 µM): 0.4%
viability, T/C (second compound 0.000949 µM, first compound 0.00949 µM): 0.76%
viability, T/C (second compound 0.000949 µM, first compound 0.03 µM): 0.61%
viability, T/C (second compound 0.000949 µM, first compound 0.0949 µM): 0.47%
viability, T/C (second compound 0.000949 µM, first compound 0.3 µM): 0.25%
viability, T/C (second compound 0.000949 µM, first compound 0.949 µM): 0.04%
viability, T/C (second compound 0.000949 µM, first compound 3 µM): 0.09%
viability, T/C (second compound 0.003 µM, first compound 0.00949 µM): 0.1%
viability, T/C (second compound 0.003 µM, first compound 0.03 µM): 0.09%
viability, T/C (second compound 0.003 µM, first compound 0.0949 µM): 0.09%
viability, T/C (second compound 0.003 µM, first compound 0.3 µM): 0.08%
viability, T/C (second compound 0.003 µM, first compound 0.949 µM): 0.1%
viability, T/C (second compound 0.003 µM, first compound 3 µM): 0.3%
